The results in this text go back to US4103010A, “(3-Piperazinocarbonylimino-quanidino)-isoxazoles” (Aron S.A.R.L., priority 1975, dated 1978).

The nature of data set [1]: acute toxicity investigation in mice. The settings on record: mouse, in vivo.
The subject of data set [2] is Doca rats. Put plainly: decrease of the systolic blood pressure in Doca rats. Type of data set: in vivo. The following applies: Rattus norvegicus, oral, 2 × 3 mg/kg, with respect to original value, read-out: percent decrease of the systolic blood pressure. Here is the method: (§1) The above results are confirmed by the results of an investigation of the action on the control of blood pressure. On oral administration of a dosage of 2 × 3 mg/kg of compound to Doca rats (Technique according to Green and co-workers, Am. J. Physiol., 1952, 170, p. 94) and to Grollman rats (Technique according to Grollman, Proc. Soc. Exp. Biol. Med., 1944, 57, p. 102), the percent decrease of the systolic blood pressure with respect to its original value is noted.

Data set [3] has as its system uptake of ^3 H noradrenalin by the synaptosomes of a rat hypothalamus homogenate. Briefly: inhibition of the uptake of ^3 H noradrenalin by synaptosomes of a rat hypothalamus homogenate. Type of data set: biochemical. The following applies: with respect to the control test. The text has this:
The compounds of the formula (I) are capable of modifying the accumulation of noradrenalin and particularly to inhibit the uptake of ^3 H noradrenalin by the synaptosomes of a rat hypothalamus homogenate prepared according to Banerjee, Snyder and Mechoulam (J. Pharmacol. Exp. Ther., 194, 1, 74, 1975). This inhibition of the uptake of ^3 H noradrenaline is a known property of various compounds having an activity on the central nervous system and/or on the sympathetic nervous system, particularly a hypotensive effect (J. Glowinski and J. Axelrod, effects of Drugs on the Disposition of ^3 H norepinephrine in the Rat Brain, Pharmacological Reviews, Vol. 18, No […], Part I, 1966).
They are expressed as percent inhibition of the uptake with respect to the control test.

In data set [4] the test system is Grollman rats. Put plainly: decrease of the systolic blood pressure in Grollman rats. Type of data set: in vivo, rat. The following applies: oral, 2 × 3 mg/kg, with respect to original value. The method, then: as §1
Setting [5] is: iv, read-out: LD50 (mg/kg) i.v.
Where [6] appears, read: po, read-out: LD50 (mg/kg) p.o.
Setting [7] is: ultimate molar concentration 5 × 10^-5 M.
Setting [8] is: ultimate molar concentration 5 × 10^-6 M.
[9] abbreviates: ultimate molar concentration 5 × 10^-4 M.

Where two headings read alike, the source gives them in different places.

Regarding `Cc1cc(N(C)C(=N)NC(=N)N)no1` [Example 7], the LD50 in data set [1] (setting [5]) is 70 mg/kg; in data set [1] (setting [6]), more than 1000 mg/kg. Further, in data set [2], the inhibition in vivo at 3 mg/kg turned out to be 15%.

Consider `Cc1conc1NC(=N)NC(=N)N` [Example 8], for which the results for the “inhibition % of the uptake of ^3 H noradrenalin” value (“inhibition %” below) in data set [3] (setting [7]) and in data set [3] (setting [8]) were 55% and 36%, respectively.

`Cc1cc(NC(=N)NC(=N)N2CCN(C)CC2)no1` [Example 19]: in data set [2], the inhibition in vivo at 3 mg/kg is 20%.

In the case of `Cc1noc(C)c1NC(=N)NC(=N)N` [Example 22], the LD50 in data set [1] (setting [5]) is more than 100 mg/kg; in data set [1] (setting [6]) it was more than 1500 mg/kg.

Take `CCCCNC(=N)NC(=N)Nc1c(C)noc1C` [Example 23]: the “inhibition %” value in data set [3] (setting [9]) worked out at 51%. The LD50 in data set [1] (setting [6]) was more than 750 mg/kg.

`Cc1noc(C)c1NC(=N)NC(=N)N(C)C` [Example 24]: the “inhibition %” value in data set [3] (setting [9]) came to 28.4%. Moreover, in data set [1] (setting [6]), the LD50 is more than 750 mg/kg.

For the molecule `Cc1noc(NC(=N)NC(=N)N)c1C` [Example 25], the “inhibition %” value in data set [3] (setting [7]) is reported as 45.5%. The LD50 in data set [1] (setting [5]) came to 20 mg/kg; in data set [1] (setting [6]), 300 mg/kg. Besides, the inhibition in vivo at 3 mg/kg in data set [2] is 20%.

As for `CCCCNC(=N)NC(=N)Nc1onc(C)c1C` [Example 26], in data set [3] (setting [7]), the “inhibition %” value was found to be 39.6%. Moreover, the figures for the LD50 in data set [1] (setting [5]) and in data set [1] (setting [6]) were 35 mg/kg and 250 mg/kg, respectively.

In the case of `CCCN1CCN(C(=N)NC(=N)Nc2cc(C)on2)CC1` [Example 28], the “inhibition %” value is reported as 60.2% in data set [3] (setting [9]) and 20% in data set [3] (setting [7]). Also, the LD50 in data set [1] (setting [6]) stood at 400 mg/kg. For the same molecule, in data set [4], the “percent decrease of the systolic blood pressure” value came out at 18%. In addition, the inhibition in vivo at 3 mg/kg in data set [2] was found to be 18%.

Consider `Cc1conc1NC(=N)NC(=N)N1CCN(C)CC1` [Example 29], for which the “inhibition %” value in data set [3] (setting [7]) stood at 65.8%; in data set [3] (setting [8]), 30.8%. Also, the LD50 in data set [1] (setting [6]) was more than 1000 mg/kg. The “percent decrease of the systolic blood pressure” value in data set [4] is on record as 15%. For the same molecule, in data set [2], the inhibition in vivo at 3 mg/kg is 15%.

Turning to `Cc1cc(NC(=N)NC(=N)N2CCNCC2)no1` [Example 30], in data set [3] (setting [9]), the “inhibition %” value is 51%. In addition, the LD50 in data set [1] (setting [6]) was more than 1000 mg/kg. Further, the inhibition in vivo at 3 mg/kg in data set [2] was 10%.
